US10875851B2, “Factor XIIa inhibitors” (Merck Sharp & Dohme Corp., priority 2016, dated 2020)
pIC50: −log10 of the molar value.

Biological target: human Factor XIIa (Homo sapiens (Human), UniProt P00748)
Experiment: Factor XIIa Assay
Type: biochemical
Conditions: purified human Factor XIIa 500 pM; substrate n-Acetyl-Lys-Pro-Arg-AFC 100 μM; pH 7.4; read-out: FXIIa IC50
Procedure, shortened: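 Purified human FXIIa at 500 pM final with 100 μM n-Acetyl-Lys-Pro-Arg-AFC in 50 mM HEPES, 150 mM NaCl, 5 mM CaCl2, 0.1% PEG 8000, pH 7.4, at room temperature or 37° C. Initial fluorogenic hydrolysis rates measured after enzyme–inhibitor equilibration; IC50 taken where Vi=Vo/2.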

human Factor XIIa, sequence (P00748 373-615): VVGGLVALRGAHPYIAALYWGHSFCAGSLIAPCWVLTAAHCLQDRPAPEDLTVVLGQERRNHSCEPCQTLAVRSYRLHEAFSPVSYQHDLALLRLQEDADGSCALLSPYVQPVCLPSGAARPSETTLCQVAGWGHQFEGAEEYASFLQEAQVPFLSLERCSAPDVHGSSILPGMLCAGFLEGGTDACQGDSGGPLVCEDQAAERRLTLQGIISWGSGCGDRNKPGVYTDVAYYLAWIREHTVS

Row | Compound | pIC50
1 | C[C@@H]1N=C(N2CCN(C(=O)[C@@H](CCCCN(C)C)NC3CCC4(CC3)CCN(Cc3ccccc3)C4)[C@H](C(=O)NCc3cccs3)C2)O[C@H]1c1ccccc1 (stereo partly drawn) [Example 142, (2S)-1-[N^2-(2-benzyl-2-azaspiro[4.5]dec-8-yl)-N^6,N^6-dimethyl-D-lysyl]-4-[(4S,5S)-4-methyl-5-phenyl-4,5-dihydro-1,3-oxazol-2-yl]-N-(thiophen-2-ylmethyl)piperazine-2-carboxamide] | 9.40
2 | CN(C)CCCC[C@@H](NC1CCC2(CC1)CCN(Cc1ccccc1)C2)C(=O)N1CCN(C(=O)CC2CCCC2)C[C@H]1C(=O)NCc1cccs1 (stereo partly drawn) [Example 93, (2S)-1-[N^2-(2-benzyl-2-azaspiro[4.5]dec-8-yl)-N^6,N^6-dimethyl-D-lysyl]-4-(cyclopentylacetyl)-N-(thiophen-2-ylmethyl)piperazine-2-carboxamide] | 7.63
3 | CN(C)CCCC[C@H](C(=O)N1CCN(C2=NC(C)(C)C(c3ccccc3)O2)C[C@H]1C(=O)NCc1ccc2[nH]cc(Cl)c2c1)N(C)C (stereo partly drawn) [Example 145, (2S)-N-[(3-chloro-1H-indol-5-yl)methyl]-4-(4,4-dimethyl-5-phenyl-4,5-dihydro-1,3-oxazol-2-yl)-1-(N^2,N^2,N^6,N^6-tetramethyl-D-lysyl)piperazine-2-carboxamide] | 8.17
4 | C[C@@H]1N=C(N2CCN(C(=O)[C@@H](CCCCN)NC3CCC4(CC3)CCN(Cc3ccccc3)C4)[C@H](C(=O)NCc3cccs3)C2)O[C@H]1c1ccccc1 (stereo partly drawn) [Example 129, (2S)-1-[N^2-(2-benzyl-2-azaspiro[4.5]dec-8-yl)-D-lysyl]-4-[(4S,5S)-4-methyl-5-phenyl-4,5-dihydro-1,3-oxazol-2-yl]-N-(thiophen-2-ylmethyl)piperazine-2-carboxamide] | 7.89
5 | C[C@@H]1N=C(N2CCN(C(=O)[C@@H](CCCCN(C)C)NC3CCC4(CC3)CCN(Cc3ccccc3)C4)[C@H](C(=O)NCc3cccs3)C2)O[C@H]1c1ccccc1 (stereo partly drawn) [Example 130, (2S)-1-[N^2-(2-benzyl-2-azaspiro[4.5]dec-8-yl)-N^6,N^6-dimethyl-D-lysyl]-4-[(4S,5S)-4-methyl-5-phenyl-4,5-dihydro-1,3-oxazol-2-yl]-N-(thiophen-2-ylmethyl)piperazine-2-carboxamide] | 8.92
6 | C[C@@H]1N=C(N2CCN(C(=O)[C@H](CCCCN(C)C)NC3CCC4(CC3)CCN(Cc3ccccc3)C4)[C@H](C(=O)NCc3cccs3)C2)O[C@H]1c1ccccc1 (some centres unmarked) [Example 136] | 7.63
7 | O=C(NCc1cccs1)[C@@H]1CN(C(=O)Oc2cccc3c2CNCC3)CCN1C(=O)[C@@H](CC1CCCCC1)NC1CCCCC1 [Example 37, 1,2,3,4-tetrahydroisoquinolin-8-yl (3S)-4-(N,3-dicyclohexyl-D-alanyl)-3-[(thiophen-2-ylmethyl)carbamoyl]piperazine-1-carboxylate] | 8.28
8 | CS(=O)(=O)NCCCC[C@@H](NC1CCC2(CC1)CCN(Cc1ccccc1)C2)C(=O)N1CCN(C(=O)Oc2cccc3c2CCNC3)C[C@H]1C(=O)NCc1cccs1 (stereo partly drawn) [Example 81, 1,2,3,4-tetrahydroisoquinolin-5-yl (3S)-4-[N^2-(2-benzyl-2-azaspiro[4.5]dec-8-yl)-N^6-(methylsulfonyl)-D-lysyl]-3-[(thiophen-2-ylmethyl)carbamoyl]piperazine-1-carboxylate] | 8.47
9 | COc1cc(CNC(=O)[C@@H]2CN(C(=O)Oc3ccc4ccccc4c3Cl)CCN2C(=O)[C@@H](CCCCN(C)C)NC2CCC(CN)CC2)ccc1CN (stereo partly drawn) [Example 92, 1-chloronaphthalen-2-yl (3S)-4-{N^2-[4-(aminomethyl)cyclohexyl]-N^6,N^6-dimethyl-D-lysyl}-3-{[4-(aminomethyl)-3-methoxybenzyl]carbamoyl}piperazine-1-carboxylate] | 8.54
10 | COc1cc(CNC(=O)[C@@H]2CN(C(=O)Oc3ccc4ccccc4c3Cl)CCN2C(=O)[C@@H](CC2CCCCC2)NC2CCCCC2)ccc1CN [Example 44, 1-chloronaphthalen-2-yl (3S)-3-{[4-(aminomethyl)-3-methoxybenzyl]carbamoyl}-4-(N,3-dicyclohexyl-D-alanyl)piperazine-1-carboxylate] | 8.57
11 | CC[C@@H](NC1CCCCC1)C(=O)N1CCN(C(=O)Oc2ccc(C)c(C)c2Cl)C[C@H]1C(=O)NCc1ccc(CN)c(OC)c1 [Example 106, 2-chloro-3,4-dimethylphenyl (3S)-3-{[4-(aminomethyl)-3-methoxybenzyl]carbamoyl}-4-[(2R)-2-(cyclohexylamino)butanoyl]piperazine-1-carboxylate] | 8.21
12 | CN(C)CCCC[C@H](C(=O)N1CCN(C2=NC(C)(C)C(c3ccccc3)O2)C[C@H]1C(=O)NCc1cccc(Cl)c1)N(C)C (stereo partly drawn) [Example 139, (2S)-N-(3-chlorobenzyl)-4-(4,4-dimethyl-5-phenyl-4,5-dihydro-1,3-oxazol-2-yl)-1-(N^2,N^2,N^6,N^6-tetramethyl-D-lysyl)piperazine-2-carboxamide] | 7.28

Second part, the molecule after the results:

Row | pIC50 | Compound
13 | 8.24 | CN(C)CCCC[C@H](C(=O)N1CCN(C2=NC(C)(C)C(c3ccccc3)O2)C[C@H]1C(=O)NCc1ccc2[nH]cc(Cl)c2c1)N(C)C (stereo partly drawn) [Example 146, (2S)-N-[(3-chloro-1H-indol-5-yl)methyl]-4-(4,4-dimethyl-5-phenyl-4,5-dihydro-1,3-oxazol-2-yl)-1-(N^2,N^2,N^6,N^6-tetramethyl-D-lysyl)piperazine-2-carboxamide]
14 | 9.22 | C[C@@H]1N=C(N2CCN(C(=O)[C@@H](CCCCN3CCCCC3)NC3CCC(CN)CC3)[C@H](C(=O)NCc3ccc4[nH]cc(Cl)c4c3)C2)O[C@H]1c1ccccc1 (stereo partly drawn) [Example 172, (2S)-1-{N-[4-(aminomethyl)cyclohexyl]-6-piperidin-1-yl-D-norleucyl}-N-[(3-chloro-1H-indol-5-yl)methyl]-4-[(4S,5S)-4-methyl-5-phenyl-4,5-dihydro-1,3-oxazol-2-yl]piperazine-2-carboxamide]
15 | 7.55 | C[C@@H]1N=C(N2CCN(C(=O)[C@@H](CCCCN3CCCCC3)NC3CCC(CN)CC3)[C@H](C(=O)NCc3ccc(C(N)=O)s3)C2)O[C@H]1c1ccccc1 (stereo partly drawn) [Example 177, (2S)-1-{N-[4-(aminomethyl)cyclohexyl]-6-piperidin-1-yl-D-norleucyl}-N-[(5-carbamoylthiophen-2-yl)methyl]-4-[(4S,5S)-4-methyl-5-phenyl-4,5-dihydro-1,3-oxazol-2-yl]piperazine-2-carboxamide]
16 | 7.44 | C[C@@H]1N=C(N2CCN(C(=O)[C@H](N)CCCCN3CCCCC3)[C@H](C(=O)NCc3cccc(Cl)c3)C2)O[C@H]1c1cccc(Br)c1 [Example 167, (2S)-4-[(4S,5S)-5-(3-bromophenyl)-4-methyl-4,5-dihydro-1,3-oxazol-2-yl]-N-(3-chlorobenzyl)-1-(6-piperidin-1-yl-D-norleucyl)piperazine-2-carboxamide]
17 | 8.52 | C[C@@H]1N=C(N2CCN(C(=O)[C@@H](CCCCN3CCCCC3)NC3CCC(CN)CC3)[C@H](C(=O)NCc3cc4cnccc4s3)C2)O[C@H]1c1ccccc1 (stereo partly drawn) [Example 174, (2S)-1-{N-[4-(aminomethyl)cyclohexyl]-6-piperidin-1-yl-D-norleucyl}-4-[(4S,5S)-4-methyl-5-phenyl-4,5-dihydro-1,3-oxazol-2-yl]-N-(thieno[3,2-c]pyridin-2-ylmethyl)piperazine-2-carboxamide]
18 | 8.09 | CC(C)N[C@H](CCCCN1CCCCC1)C(=O)N1CCN(C2=N[C@@H](C)[C@H](c3cccc(Br)c3)O2)C[C@H]1C(=O)NCc1cccc(Cl)c1 [Example 168, (2S)-4-[(4S,5S)-5-(3-bromophenyl)-4-methyl-4,5-dihydro-1,3-oxazol-2-yl]-N-(3-chlorobenzyl)-1-[N-(1-methylethyl)-6-piperidin-1-yl-D-norleucyl]piperazine-2-carboxamide]
19 | 7.33 | CC(C)N[C@H](CCCCN1CCCCC1)C(=O)N1CCN(C2=N[C@@H](C)[C@H](c3ccccc3)O2)C[C@H]1C(=O)NCc1ccc(CN)cc1 [Example 180, (2S)-N-[4-(aminomethyl)benzyl]-1-[N-(1-methylethyl)-6-piperidin-1-yl-D-norleucyl]-4-[(4S,5S)-4-methyl-5-phenyl-4,5-dihydro-1,3-oxazol-2-yl]piperazine-2-carboxamide]
20 | 7.64 | C[C@@H]1N=C(N2CCN(C(=O)[C@H](N)CCCCN3CCCCC3)[C@H](C(=O)NCc3cccs3)C2)O[C@H]1c1ccccc1 [Example 164, (2S)-4-[(4S,5S)-4-methyl-5-phenyl-4,5-dihydro-1,3-oxazol-2-yl]-1-(6-piperidin-1-yl-D-norleucyl)-N-(thiophen-2-ylmethyl)piperazine-2-carboxamide]
21 | 8.41 | CC(C)N[C@H](CCCCN1CCCCC1)C(=O)N1CCN(C2=N[C@@H](C)[C@H](c3ccccc3)O2)C[C@H]1C(=O)NCc1cc2cnccc2s1 [Example 173, (2S)-1-[N-(1-methylethyl)-6-piperidin-1-yl-D-norleucyl]-4-[(4S,5S)-4-methyl-5-phenyl-4,5-dihydro-1,3-oxazol-2-yl]-N-(thieno[3,2-c]pyridin-2-ylmethyl)piperazine-2-carboxamide]
22 | 7.46 | CN(C)CCCC[C@H](C(=O)N1CCN(C2=NC(C)(C)C(c3ccccc3)O2)C[C@H]1C(=O)NCc1ccc(CN)c(Cl)c1)N(C)C (stereo partly drawn) [Example 149, (2S)-N-[4-(aminomethyl)-3-chlorobenzyl]-4-(4,4-dimethyl-5-phenyl-4,5-dihydro-1,3-oxazol-2-yl)-1-(N^2,N^2,N^6,N^6-tetramethyl-D-lysyl)piperazine-2-carboxamide]
23 | 7.56 | CC(C)N[C@H](CCCCN1CCCCC1)C(=O)N1CCN(C2=NC(C)(C)C(c3ccccc3)O2)C[C@H]1C(=O)NCc1cc2cnccc2s1 (stereo partly drawn) [Example 159, (2S)-4-(4,4-dimethyl-5-phenyl-4,5-dihydro-1,3-oxazol-2-yl)-1-[N-(1-methylethyl)-6-piperidin-1-yl-D-norleucyl]-N-(thieno[3,2-c]pyridin-2-ylmethyl)piperazine-2-carboxamide]
